Measurements: EP4310072A1, “ULTRAVIOLET ABSORBER, COMPOSITION, COSMETIC PRODUCT, AND PROCESS FOR PREPARING COSMETIC PRODUCT” (MFCI (Huanggang) Co., Ltd., priority 2021, dated 2023)

Assays:
Assay type in all cases: physicochemical
[1] = Particle size testing by laser diffraction (Malvern MS2000 laser particle size analyzer, dispersant water); conditions: for αd5: Vd5/Vd100, distribution coefficient of particles with a particle size of 5 µm; for αd10: Vd10/Vd100, distribution coefficient of 10 µm particles; for Consistency / Span (β) / Specific surface area / Surface area-average particle size D[3,2] / Volume-average particle size D[4,3]: laser diffraction, dispersant water; for d(0.9): maximum particle size, cumulative distribution 90%; for d(0.5): median particle size, cumulative distribution 50%; for d(0.1): minimum particle size, cumulative distribution 10%; for Particle size distribution d(0.9) (integer) / Particle size distribution d(0.1) (integer): rounded to integer, Tables 14 and 16
Experimental: The particle size distribution and characteristics of the ultraviolet absorber described herein, such as the minimum particle size d(0.1), the d(0.9) and the consistency are determined by a laser diffraction method, and determination conditions are as follows: • particle size analyzer: Malvern MS2000 laser particle size analyzer; • name of an injector: Hydro 2000MU (A); • analysis mode: general; • particle size range: 0.02-2000 µm; • name of a dispersant: water.

[2] = Second dissolution experiment: sample stirred into the oil phase of an SPF 25 sunscreen oil, 6% DHHB; conditions: for Sample dissolution time: added concentration 6%, 25°C, stirring rate 150 r/min, oil phase; for increase rate of dissolution time: added concentration 6% versus 3%
Experimental: In this dissolution experiment, the agglomeration degree of the ultraviolet absorbers in the above examples and comparative examples was evaluated, and each sample of a certain mass was added into an oil phase and stirred at room temperature (25°C) at a stirring rate of 150 r/min for dissolution. The dissolution experiment was carried out on raw materials for preparation of a sunscreen oil with an SPF value of 25. Table 15 Raw material table
Except that DHHB is a solid, all other components are liquid oils. A production process includes: sequentially adding various components into an oil pot, and enabling a stirring function until the components are completely dissolved. Table 16 Sample property test result table

[3] = First dissolution experiment: sample stirred into the oil phase of an SPF 25 sunscreen oil, 3% DHHB; conditions: added concentration 3%, 25°C, stirring rate 150 r/min
Experimental: In this dissolution experiment, the agglomeration degree of the ultraviolet absorbers in the above examples and comparative examples was evaluated, and each sample of a certain mass was added into an oil phase and stirred at room temperature (25°C) at a stirring rate of 150 r/min for dissolution. The dissolution experiment was carried out on raw materials for preparation of a sunscreen oil with a sun protection factor (SPF) value of 25. Table 13 Raw material table
Except that DHHB is a solid, all other components are liquid oils. A production process includes: sequentially adding various components into an oil pot, and enabling a stirring function until the components are completely dissolved. Table 14 Sample property test result table

Row | SMILES | difference between D[3,2] and D[4,3] [1] [µm] | αd5 [1] | αd10 [1] | Consistency [1] | Span (β) [1] | Specific surface area [1] [m^2/g] | Surface area-average particle size D[3,2] [1] [µm] | Volume-average particle size D[4,3] [1] [µm] | d(0.9) [1] [µm] | d(0.5) [1] [µm] | d(0.1) [1] [µm] | Particle size distribution d(0.9) (integer) [1] [µm] | Particle size distribution d(0.1) (integer) ([1]; in µm) | Sample dissolution time [2] [min] | Sample dissolution time [3] [min] | Particle size distribution d(0.1) (integer) [1] | increase rate of dissolution time [2]
1 | CCCCCCOC(=O)c1ccccc1C(=O)c1ccc(N(CC)CC)cc1O [Example 5, 2-(4-N,N-diethylamino-2-hydroxybenzoyl) hexyl benzoate] | 21.881 | 0.037 | 0.095 | 0.596 | 1.944 | 0.281 | 21.390 | 43.271 | 43.271 | 21.390 | 10.747 | 43 | 10 | < 5 | < 5 | – | –
2 | CCCCCCOC(=O)c1ccccc1C(=O)c1ccc(N(CC)CC)cc1O [Comparative Example 2, reference compound] | – | – | – | – | – | – | – | – | – | – | – | 1000 | – | 202 | 134 | 850 (±20) | about 50%
3 | CCCCCCOC(=O)c1ccccc1C(=O)c1ccc(N(CC)CC)cc1O [Example 4, 2-(4-N,N-diethylamino-2-hydroxybenzoyl) hexyl benzoate] | 11.215 | 0.002 | 0.074 | 0.62 | 1.998 | 0.284 | 21.149 | 32.364 | 62.903 | 25.939 | 11.066 | 63 | 11 | < 5 | < 5 | – | –
4 | CCCCCCOC(=O)c1ccccc1C(=O)c1ccc(N(CC)CC)cc1O [Example 1, 2-(4-N,N-diethylamino-2-hydroxybenzoyl) hexyl benzoate] | 11.727 | 0.0160 | 0.111 | 0.638 | 2.008 | 0.331 | 18.113 | 29.840 | 57.575 | 23.866 | 9.647 | 58 | – | – | – | – | –
5 | CCCCCCOC(=O)c1ccccc1C(=O)c1ccc(N(CC)CC)cc1O [Example 2, 2-(4-N,N-diethylamino-2-hydroxybenzoyl) hexyl benzoate] | 8.865 | 0.006 | 0.104 | 0.578 | 1.869 | 0.325 | 18.463 | 27.328 | 51.867 | 22.470 | 9.862 | 52 | 10 | < 5 | < 5 | – | –
6 | CCCCCCOC(=O)c1ccccc1C(=O)c1ccc(N(CC)CC)cc1O [Example 3, 2-(4-N,N-diethylamino-2-hydroxybenzoyl) hexyl benzoate] | 17.543 | 0.019 | 0.107 | 0.691 | 2.23 | 0.295 | 20.356 | 37.899 | 77.626 | 30.410 | 9.803 | 78 | 10 | < 5 | < 5 | – | –
7 | CCCCCCOC(=O)c1ccccc1C(=O)c1ccc(N(CC)CC)cc1O [Comparative Example 1] | 128.616 | 0.005 | 0.122 | 2.44 | 10.995 | 0.258 | 23.263 | 151.879 | 518.950 | 51.970 | 10.517 | 519 | 11 | 208 | 151 | – | about 38%
